Results taken from patent US7155346B2, “Crystal structure of yqeJ and uses thereof” (Wyeth, priority 2001, dated 2006).

Assays:
[1] = target: T1, B. subtilis NaMN AT (yqeJ) (Bacillus subtilis, UniProt P54455); experiment: Continuous coupled assay of the forward reaction (EnzChek pyrophosphate / purine nucleoside phosphorylase); type: biochemical; parameters: made in house; host or cells: E. coli BL21(DE3), vector pML208 (modified pET16b)
T1 sequence (P54455 with tags, fused parts or gaps): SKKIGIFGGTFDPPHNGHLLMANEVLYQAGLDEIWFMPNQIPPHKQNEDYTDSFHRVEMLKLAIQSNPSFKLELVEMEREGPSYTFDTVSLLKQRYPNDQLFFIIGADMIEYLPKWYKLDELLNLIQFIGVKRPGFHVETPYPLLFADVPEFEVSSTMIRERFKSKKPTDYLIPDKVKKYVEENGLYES
Excerpt: Continuous assay. A continuous assay to monitor the reaction in the forward direction was based upon the EnzChek pyrophosphate assay from Molecular Probes (Eugene Oreg.) In this assay, inorganic pyrophosphate produced in the forward reaction of yqeJ is cleaved by inorganic pyrophosphatase to phosphate, which is used by the second coupling enzyme, purine nucleoside phosphorylase (PNP), to convert the chromogenic substrate 2-amino-6-mercapto-7-methylpurine ribonucleoside (MESG) to ribose-1-phosphate and 2-amino-6-mercapto-7methylpurine (E360=11,000 M^−1cm^−1). The reaction conditions were 20 mM Hepes pH 7.5, 10 mM MgCl2, 0.2 mM MESG, 1 U PNP, 0.01 U inorganic pyrophosphatase, and 0.03 μg/mL yqeJ. The reaction volume was 125 μL and was carried out in a 96 well plate at room temperature using spectamax384 plus plate reader recording continuously at 360 nm (Molecular Devices, Sunnyvale Calif.). For the KM determinations, NaMN was varied from 25 to 500 μM with ATP held at 2 mM and ATP was varied from 50 to 1000 μM with NaMN held constant at 1 mM. All kinetic constants were determined from non-linear fits of the experimental data using the enzyme kinetic module of Sigmaplot 7.0 (SPSS, Inc. San Rafael Calif.). The reaction conditions were the same for the KM determinations for NMN except the MgCl2 concentration was increased to 50 mM and the yqeJ concentration was increased to 75 μg/mL due to the lower activity against this substrate. […] The data was fit to a model of substrate inhibition using the equation: v=Vmax/(1+KM/S+S/Ki). […] NMN was varied from 0.5 to 10 mM with ATP held constant at 0.6 mM. The kinetic constants of yqeJ using NMN and ATP substrates also was determined with a second coupled assay system, one coupling NAD production to its reduction by alcohol dehyrogenase. This assay was described by Balducci et al (Balducci et al, 1995a) and has been used to characterize other NMN ATase. Using this assay, very similar values of KM and Vmax for NMN were obtained as was determined with the PNP coupled assay described above. The alcohol dehyrogenase coupled assay was not suitable to assays NaMN as a substrate, presumably because NaAD is not a good substrate for alcohol dehydrogenase.

[2] = target: T2, yqeJ NaMN AT (Bacillus subtilis, UniProt P54455); experiment: Discontinuous HPLC adenylyl transferase assay; type: biochemical; settings: 30 minutes, 37° C.
T2 construct: made in house; host or cells: E. coli BL21(DE3), vector pML208 (modified pET16b)
Experimental: FIGS. 3A, 3B, 3C and 3D provides the results of HPLC analysis of yqeJ NaMN AT adenylyl transferase activity. 0.36 mg/ml yqeJ NaMN AT was incubated with 1 mM ATP and 1 mM NaMN (3A) or 1 mM NMN (3B) for 30 minutes.
Discontinuous HPLC assay. The discontinuous HPLC assay is based upon the assays published by Mehl et al. (12) and Balducci et al. (18). Reaction conditions were 20 mM Hepes, pH 7.4, 10 mM MgCl2, and 0.36 or 0.18 mg/ml yqeJ protein incubated at 37° C. For the forward reaction, the incubations contained 1 mM ATP and 1 mM NaMN or NMN. […] The reactants and products were separated by chromatography on a 3.9×150 mm C18 column (Novapack 5 μm, Waters Inc). Buffer A 100 mM potassium phosphate pH 7.5. Buffer B 100 mM potassium phosphate pH 7.5 in 20% MeOH. The elution conditions were: 0 to 3 min in 100% A, 3.0 to 3.1 min to 100% B, 3.1 to 7 min 100% B. The absorbance of reactants and products was detected at 254 nm.

[3] = target: T1, B. subtilis NaMN AT (yqeJ); experiment: Back reaction coupled enzyme assay (hexokinase / glucose-6-phosphate dehydrogenase)
Excerpt: The back reaction for yqeJ NaMN AT was monitored using the coupled enzyme assay of hexokinase and glucose-6-phosphate dehydrogenase (from yeast). […] The ATP is then used by hexokinase to phosphorylate glucose to give glucose-6-phosphate and ADP. Glucose-6-phosphate is oxidized to 6-phospho-glucono-δ-lactone by glucose-6-phosphate dehydrogenase and NADP is reduced to NADPH. The assay is followed by the absorbance of NADPH at 340 nm. Glucose-6-phosphate dehydrogenase from baker's yeast was used because this enzyme prefers NADP to NAD as a co-substrate. Assay conditions were: 20 mM HEPES pH 7.5, 50 mM MgCl2, 1 mM NaPPi, 10 mM KCl, 5 U hexokinase, 5 U glucose-6-phosphate dehydrogenase, 1 mM glucose, 0.5 mM NADP+.

[4] = substrate: NC(=O)c1ccc[n+]([C@@H]2O[C@H](COP(=O)([O-])O)[C@@H](O)[C@H]2O)c1; experiment: Continuous coupled assay of the forward reaction (EnzChek pyrophosphate / purine nucleoside phosphorylase); type: biochemical, Bacillus subtilis; settings: other: forward reaction; mononucleotide substrate varied, ATP held constant (2 mM for NaMN, 0.6 mM for NMN); NMN fit to substrate inhibition equation; pH 7.5
Excerpt: Continuous assay. A continuous assay to monitor the reaction in the forward direction was based upon the EnzChek pyrophosphate assay from Molecular Probes (Eugene Oreg.) In this assay, inorganic pyrophosphate produced in the forward reaction of yqeJ is cleaved by inorganic pyrophosphatase to phosphate, which is used by the second coupling enzyme, purine nucleoside phosphorylase (PNP), to convert the chromogenic substrate 2-amino-6-mercapto-7-methylpurine ribonucleoside (MESG) to ribose-1-phosphate and 2-amino-6-mercapto-7methylpurine (E360=11,000 M^−1cm^−1). The reaction conditions were 20 mM Hepes pH 7.5, 10 mM MgCl2, 0.2 mM MESG, 1 U PNP, 0.01 U inorganic pyrophosphatase, and 0.03 μg/mL yqeJ. The reaction volume was 125 μL and was carried out in a 96 well plate at room temperature using spectamax384 plus plate reader recording continuously at 360 nm (Molecular Devices, Sunnyvale Calif.). […] All kinetic constants were determined from non-linear fits of the experimental data using the enzyme kinetic module of Sigmaplot 7.0 (SPSS, Inc. San Rafael Calif.). […] The kinetic constants of yqeJ using NMN and ATP substrates also was determined with a second coupled assay system, one coupling NAD production to its reduction by alcohol dehyrogenase. […] Using this assay, very similar values of KM and Vmax for NMN were obtained as was determined with the PNP coupled assay described above. […]

[5] = substrate: O=P(O)(O)OP(=O)(O)O; experiment: purified protein, by the assay type; settings: other: back reaction; at saturating concentrations of NaAD (500 μM); pH 7.5
[6] = substrate: NC(=O)c1ccc[n+]([C@@H]2O[C@H](COP(=O)([O-])OP(=O)(O)OC[C@H]3O[C@@H](n4cnc5c(N)ncnc54)[C@H](O)[C@@H]3O)[C@@H](O)[C@H]2O)c1; experiment: purified protein, by the assay type; settings: other: back reaction; at subsaturating concentrations of PPi (1 mM); pH 7.5
Excerpt: The back reaction for yqeJ NaMN AT was monitored using the coupled enzyme assay of hexokinase and glucose-6-phosphate dehydrogenase (from yeast). […] The ATP is then used by hexokinase to phosphorylate glucose to give glucose-6-phosphate and ADP. Glucose-6-phosphate is oxidized to 6-phospho-glucono-δ-lactone by glucose-6-phosphate dehydrogenase and NADP is reduced to NADPH. The assay is followed by the absorbance of NADPH at 340 nm. Glucose-6-phosphate dehydrogenase from baker's yeast was used because this enzyme prefers NADP to NAD as a co-substrate. Assay conditions were: 20 mM HEPES pH 7.5, 50 mM MgCl2, 1 mM NaPPi, 10 mM KCl, 5 U hexokinase, 5 U glucose-6-phosphate dehydrogenase, 1 mM glucose, 0.5 mM NADP+. […] At high concentration of NaPPi a precipitate was observed.

[7] = forward reaction, at saturating concentrations of NaMN
[8] = back reaction, at subsaturating concentrations of PPi (1 mM)
[9] = forward reaction: 1 mM ATP and 1 mM substrate, 0.36 mg/ml yqeJ

## Nc1ncnc2c1ncn2[C@@H]1O[C@H](COP(=O)(O)OP(=O)(O)OP(=O)(O)O)[C@@H](O)[C@H]1O [ATP]
[1]; [7]
  Km: 135 µM
  Vmax: 10.1 ± 0.4 µmol/min/mg

## Nc1ncnc2c1ncn2[C@@H]1O[C@H](COP(=O)(O)OP(=O)(O)OC[C@H]2O[C@@H]([n+]3cccc(C(=O)O)c3)[C@H](O)[C@@H]2O)[C@@H](O)[C@H]1O [NAAD, nicotinic acid adenine dinucleotide]
[2]; reverse reaction: 1 mM sodium pyrophosphate and 0.5 mM substrate, 0.18 mg/ml yqeJ
  conversion of substrate by yqeJ, detected by HPLC: converted to NaMN and ATP
[3]; [8]
  Km: 6.8 µM
  Vmax: 2.8 ± 0.2 µmol/min/mg
[3]; reverse reaction, NaAD over NAD
  preference (Vmax/KM ratio) for nicotinic acid over nicotinamide containing substrate: 2,000 to 1

## NC(=O)c1ccc[n+]([C@@H]2O[C@H](COP(=O)([O-])O)[C@@H](O)[C@H]2O)c1 [NMN, Nicotinamide Mononucleotide]
[2]; [9]
  conversion of substrate by yqeJ, detected by HPLC: a new peak that eluted with NAD
[1]
  Ki: 17 mM

## O=C(O)c1ccc[n+]([C@@H]2O[C@H](COP(=O)(O)O)[C@@H](O)[C@H]2O)c1 [NaMN, nicotinic acid mononucleotide]
[2]; [9]
  conversion of substrate by yqeJ, detected by HPLC: formation of a new peak as detected by HPLC that eluted with the NaAD standard
[1]; forward reaction, NaMN over NMN
  preference (Vmax/KM ratio) for nicotinic acid over nicotinamide containing substrate: 12,900 to 1
[1]; forward reaction, mononucleotide substrate varied, ATP held constant
  Vmax: 11.1 ± 0.7 µmol/min/mg
[1]; forward reaction, mononucleotide substrate varied, ATP held constant (2 mM for NaMN, 0.6 mM for NMN), NMN fit to substrate inhibition equation
  Km: 43 µM

B1: B. subtilis NaMN AT (yqeJ) (Bacillus subtilis subsp. subtilis str. 168) (protein)
chain: SKKIGIFGGTFDPPHNGHLLMANEVLYQAGLDEIWFMPNQIPPHKQNEDYTDSFHRVEMLKLAIQSNPSFKLELVEMEREGPSYTFDTVSLLKQRYPNDQLFFIIGADMIEYLPKWYKLDELLNLIQFIGVKRPGFHVETPYPLLFADVPEFEVSSTMIRERFKSKKPTDYLIPDKVKKYVEENGLYES
notes: made in house; host or cells: E. coli BL21(DE3), vector pML208 (modified pET16b)
[4]
  Km: 2300 ± 200 µM
  Vmax: 0.054 µmol/min/mg
[5]
  Km: 4200 ± 600 µM
[6]
  Km: 1700 ± 200 µM
  Vmax: 0.34 µmol/min/mg
